SMILES strings stand for the structures. Entries after “also recorded” stand apart in the source; their conditions may differ.

The target in one data set is T1, Topoisomerase II (Homo sapiens, UniProt P11388).
T1 construct: purchased TopoGENE (TopoGEN) TG2000H / kit TG1001
Kind of data set: Topoisomerase II inhibition screening (supercoiled plasmid relaxation, then kDNA decatenation). Set-up: key to TOP2 Inhib.: Y is an indication that activity was found. Type of data set: biochemical. As to the method: In vitro Topo II activity assays—K-DNA decatenation assays were performed using the human Topo II assay kit (TG1001, TopoGENE™) with Etoposide and ICRF193 as poison and catalytic inhibitors respectively. DNA relaxation assays were performed by incubating the supercoiled pHOT™ plasmid with human Topo IIα (TG2000H™, TopoGENE™) at 37 degrees for one hour. Reactions were stopped by adding 10% SDS, EDTA and proteinase K. Plasmid DNAs were separated on DNA agarose gel and stained with ethidium bromide for visualization.
Medium Throughput Screening Assays A supercoiled plasmid relaxation assay was used as a first, course filter to determine candidate small molecules. Small molecule candidates that were sufficiently active in the first round screening were then subject to the kDNA decatenation assay.
Second Round Screening With the discovered active compounds 19 and 23, a new screen was initiated to look for similar molecules. For this, the shape similarity screening program ROCS™^10 was used The compounds chosen for the ROCS™ search was based on the docking conformation of Compound 23. The ZINC-15 library filtered down to 6 million molecules described previously was used for this screening. The top 62 molecules were hand-picked based on their ROCS™ similarity as well as their docking scores. These molecules were ordered and tested with the same medium throughput assays previously described. A large enrichment in the proportion of active molecules was observed, of close to 10-fold relative to the first round, validating the virtual screening pipeline.

The subject of data set [1] is K562 cells. The data set can be described thus: γH2AX Western blot (DNA damage in cells). It is filed as cell-based. Particulars: 10-20 μM, 4 hours, listed as Top60. How it is done: (§1) Cytotoxicity was evaluated by measuring LDH levels from cell culture media; (b) K562 cells were treated with either vehicle or 10-20 μM of Top60, Etoposide and ICRF187 for 4 hours. Whole cell lyses were collected to measure γH2AX levels with vinculin as the loading control; (c) K562 cells were treated with 0, 1, 5, 10, 15 and 20 μM of Top60, 20 μM Etoposide or 20 uM ICRF187 for 48 hours. Cell proliferation rates were determined by MTS assays; and (d) K562 cells were treated with 20 μM of Top60, Etoposide or ICRF187 for 0, 24, 48 and 72 hours. Cell proliferation rates were measured by MTS assays. All results were collected from three independent experiments.
Top60 is a catalytic inhibitor of Topo II To verify that our lead Compound 60(Top60), the formation of ds DNA breaks was assayed both in and outside of cells. To assess whether Top60 causes double stranded DNA breaks outside cells, supercoiled plasmid was incubated with and without Top60 in the presence of Topo II (FIG. 1d). […] Furthermore, H2AXγ protein expression was assessed by Western blot to determine if the lead compound could cause DNA damage in cells, and compared to Etoposide as a control (FIG. 3b). […] To determine if Top60 was capable of intercalating DNA, it was incubated with relaxed plasmid at increasing concentrations and compared with m-AMSA, a known intercalator. […]
(A western blot detects proteins with antibodies after separation by electrophoresis.)

Data set [2] relates to K562 cells. Kind of data set: MTS cell proliferation assay. Type of data set: cell-based. Conditions: 0-20 μM 48 hours, 20 μM 0-72 hours, listed as Top60. How it is done: as §1
BrDU incorporation and cell proliferation assays—Cell proliferation rates were measured by using the CellTitre™ 96 AqueousOne™ kit (Promega™) and bromodeoxyuridine (BrdU) assay kit (Millipore™) according to the manufacturer's protocol, with minor modifications as we have previously described by Li H. et al.^19
(Tetrazolium dyes change colour on reduction, which living cells bring about.)

Another data set deals with Topo IIα (Homo sapiens, UniProt P11388). Kind of data set: DNA cleavage assay (linear DNA formation). It is filed as biochemical. Set-up: purchased TopoGENE (TopoGEN) TG2000H. Conditions: supercoiled plasmid with Topo II, 50 μM. As to the method:
DNA samples were separated by electrophoresis on 0.8% agarose gels and visualized by ethium bromide staining. The positions of K-DNA and decatenated (D) DNA products are marked by arrows. Experiments were repeated five times and the densitometry of the D bands were used to establish an inhibition curve to calculate IC50. (b) Supercoiled pHOT™ plasmid was incubated with human TOP2a in the presence of 50 μM Etopside, 50 uM ICRF193 or 0-50 μM of compound #60 (Top60) compound at 37° C. for 1 hour. DNA products were separated by electrophoresis on 1% agarose gels and visualized by ethium bromide staining. The positions of supercoiled (SC), nicked (N), and relaxed (R) DNA bands are marked by arrows. Experiments were repeated five times and the densitometiy of the SC bands were used to establish an inhibition curve to calculate IC50. (c) Supercoiled pHOT™ plasmid was incubated with Topoisomerase I prior to addition of either mAMSA or compound #60 (Top60) at concentrations of 0, 5, 10, 25 and 50 μM at 37° C. for 30 minutes. […]
Top60 is a catalytic inhibitor of Topo II To verify that our lead Compound 60(Top60), the formation of ds DNA breaks was assayed both in and outside of cells. […] Furthermore, H2AXγ protein expression was assessed by Western blot to determine if the lead compound could cause DNA damage in cells, and compared to Etoposide as a control (FIG. 3b). […]

T1 sequence (P11388 whole entry): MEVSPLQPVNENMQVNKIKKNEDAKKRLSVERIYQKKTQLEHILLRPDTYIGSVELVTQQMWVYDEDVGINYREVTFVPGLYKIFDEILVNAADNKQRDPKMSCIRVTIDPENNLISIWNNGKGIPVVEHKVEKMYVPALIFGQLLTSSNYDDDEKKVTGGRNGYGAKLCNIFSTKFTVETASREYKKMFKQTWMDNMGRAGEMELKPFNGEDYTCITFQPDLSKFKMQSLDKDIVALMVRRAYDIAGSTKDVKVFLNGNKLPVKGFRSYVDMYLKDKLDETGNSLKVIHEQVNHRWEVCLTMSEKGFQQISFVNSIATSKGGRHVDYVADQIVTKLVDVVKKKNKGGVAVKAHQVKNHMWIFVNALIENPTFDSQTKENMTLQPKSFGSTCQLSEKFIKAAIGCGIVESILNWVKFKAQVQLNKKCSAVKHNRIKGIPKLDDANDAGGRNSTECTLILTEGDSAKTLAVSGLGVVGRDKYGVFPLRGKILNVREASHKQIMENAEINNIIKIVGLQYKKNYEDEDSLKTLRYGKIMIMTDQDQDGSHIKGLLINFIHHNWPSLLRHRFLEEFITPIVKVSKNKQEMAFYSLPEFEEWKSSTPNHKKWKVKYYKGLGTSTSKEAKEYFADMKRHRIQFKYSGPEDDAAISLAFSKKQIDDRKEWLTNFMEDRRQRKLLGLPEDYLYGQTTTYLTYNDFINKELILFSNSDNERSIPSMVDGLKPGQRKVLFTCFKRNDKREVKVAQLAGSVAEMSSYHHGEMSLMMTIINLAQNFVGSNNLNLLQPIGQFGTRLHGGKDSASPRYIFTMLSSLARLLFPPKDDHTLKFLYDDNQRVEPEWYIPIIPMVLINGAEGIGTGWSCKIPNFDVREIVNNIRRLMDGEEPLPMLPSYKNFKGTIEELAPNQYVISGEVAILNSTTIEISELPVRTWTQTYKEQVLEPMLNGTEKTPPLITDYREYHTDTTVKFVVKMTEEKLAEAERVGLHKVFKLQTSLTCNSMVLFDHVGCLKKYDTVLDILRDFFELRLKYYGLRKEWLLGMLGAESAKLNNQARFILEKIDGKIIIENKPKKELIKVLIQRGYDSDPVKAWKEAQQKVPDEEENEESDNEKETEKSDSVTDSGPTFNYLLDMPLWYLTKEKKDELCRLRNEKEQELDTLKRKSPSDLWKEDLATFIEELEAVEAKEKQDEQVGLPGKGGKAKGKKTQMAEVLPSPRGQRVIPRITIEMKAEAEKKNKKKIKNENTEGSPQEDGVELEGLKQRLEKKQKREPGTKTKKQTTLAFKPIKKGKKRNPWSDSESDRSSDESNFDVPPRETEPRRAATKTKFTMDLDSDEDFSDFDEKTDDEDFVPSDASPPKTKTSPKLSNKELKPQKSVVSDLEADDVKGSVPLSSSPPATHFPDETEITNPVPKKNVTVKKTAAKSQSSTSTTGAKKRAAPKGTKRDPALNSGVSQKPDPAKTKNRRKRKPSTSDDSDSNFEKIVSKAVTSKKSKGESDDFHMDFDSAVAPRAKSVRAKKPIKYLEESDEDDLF
Chain of Topo IIα (P11388 whole entry): as above

On to `O=C(Nc1ccc(Nc2ccccc2)cc1)c1ccc[nH]c1=S` [Compound 60], for which, at Topoisomerase II, the “TOP2 Inhib.” value is “Y” and the “inhibitory activity against Topo II compared with ICRF-193” value is on record as “more potent inhibitory activity against Topo II than ICRF-193”. Besides, the “IC50 of Topo II inhibition” value against Topoisomerase II (assay not specified) is recorded as “nanomolar”. At Topoisomerase II (medium throughput relaxation and kDNA decatenation assays), the “relative activity among compounds tested in the screening round” value is “most active of the group”. The “Topoisomerase II inhibitory activity” value at Topoisomerase II (result in words) is reported as “inhibits TOP2 activity”. Further, in the data set with K562 cells [1], the “DNA damage in cells by H2AXγ protein level” value is “do not cause DNA damage”. Besides, the “cell proliferation (MTS)” value with K562 cells [2] is given as “strong inhibitory effects; also recorded: inhibits cell proliferation”. Besides, the “formation of linear DNA (double stranded DNA breaks, poison activity)” value at Topo IIα is “no linear DNA is formed”. On Topo IIα (listed as Top60), the “formation of linear DNA (double stranded DNA breaks, poison activity)” value is “almost no band corresponding to linear DNA is formed”.

Values taken from US20210379077A1, “TOPOISOMERASE II CATALYTIC INHIBITOR COMPOUND THERAPEUTICS FOR CANCER TREATMENT, METHODS AND USES” (The University of British Columbia, priority 2018, published 2021).
